Data on 13 molecules can be found in patent US9873680B2 (Gilead Sciences, Inc., priority 2014, dated 2018).

As usually defined, the inhibition is the drop in the measured response relative to a control, in per cent. Usually CC50 stands for the concentration at which the toxic effect on the cells reaches its halfway point. High values mean better tolerance by the cells, low ones harm at low concentration.

Where two headings read alike, the source gives them in different places. Bounds are passed on as bounds.

One data set deals with HIV-IIIb. Nature of the data set: Test A: Antiviral Assay in MT4 Cells. Conditions: read-out: % inhibition at 0.2 μM (percent inhibition of virus-induced cell killing). The format is cell-based, HIV-1. The procedure, abridged:
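MT-4 cells were preinfected with HIV-IIIb […]. Cell viability, as protection from viral cytopathic effect, was read by CellTiter-Glo chemiluminescence.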

The nature of data set [1]: Test B: Cytotoxicity Assay. The format is cell-based. Conditions: human, uninfected MT-4 cells, CellTiter-Glo. As for the experimental part: Test B: Cytotoxicity Assay Compound cytotoxicity and the corresponding CC50 values was determined using the same protocol as described in the antiviral assay (Test A) except that uninfected cells were used.
The mark [2] stands for this setting: Human immunodeficiency virus 1, MT4, 120 h, 0.2 μM drug concentration, MT-4 cells infected with HIV-IIIb, 5 days, values normalized to 100%, average over time.

Consider `Cn1nc(NS(C)(=O)=O)c2c(Cl)ccc(-c3ccc(C#CC(C)(C)N4CCOC4=O)nc3[C@H](Cc3cc(F)cc(F)c3)NC(=O)Cn3nc(C(F)(F)F)c4c3C(F)(F)[C@@H]3C[C@H]43)c21` [Compound 63, N—((S)-1-(3-(4-chloro-1-methyl-3-(methylsulfonamido)-1H-indazol-7-yl)-6-(3-methyl-3-(2-oxooxazolidin-3-yl)but-1-yn-1-yl)pyridin-2-yl)-2-(3,5-difluorophenyl)ethyl)-2-((3bS,4aR)-5,5-difluoro-3-(trifluoromethyl)-3b,4,4a,5-tetrahydro-1H-cyclopropa[3,4]cyclopenta[1,2-c]pyrazol-1-yl)acetamide], for which the inhibition at 0.2 µM in the data set on HIV-IIIb (setting [2]) came to 90%. In addition, the midpoint of cytotoxicity in data set [1], the CC50 at 5 days, lay at 20.7 µM.

Take `Cn1nc(NS(C)(=O)=O)c2c(Cl)ccc(-c3ccc(C#CC4(O)CC4)nc3[C@H](Cc3cc(F)cc(F)c3)NC(=O)Cn3nc(C(F)(F)F)c4c3C(F)(F)[C@@H]3C[C@H]43)c21` [Compound 64, N—((S)-1-(3-(4-chloro-1-methyl-3-(methylsulfonamido)-1H-indazol-7-yl)-6-((1-hydroxycyclopropyl)ethynyl)pyridin-2-yl)-2-(3,5-difluorophenyl)ethyl)-2-((3bS,4aR)-5,5-difluoro-3-(trifluoromethyl)-3b,4,4a,5-tetrahydro-1H-cyclopropa[3,4]cyclopenta[1,2-c]pyrazol-1-yl)acetamide]: the inhibition at 0.2 µM in the data set on HIV-IIIb (setting [2]) worked out at 98%. For the same molecule, half-maximal cytotoxicity in data set [1] (CC50 at 5 days) was put at 16.1 µM.

As to `Cn1nc(NS(C)(=O)=O)c2c(Cl)ccc(-c3ccc(C#CC(O)C4CNC4)nc3[C@H](Cc3cc(F)cc(F)c3)NC(=O)Cn3nc(C(F)(F)F)c4c3C(F)(F)[C@@H]3C[C@H]43)c21` (stereo partly drawn) [Compound 65, N-((1S)-1-(6-(3-(azetidin-3-yl)-3-hydroxyprop-1-yn-1-yl)-3-(4-chloro-1-methyl-3-(methylsulfonamido)-1H-indazol-7-yl)pyridin-2-yl)-2-(3,5-difluorophenyl)ethyl)-2-((3bS,4aR)-5,5-difluoro-3-(trifluoromethyl)-3b,4,4a,5-tetrahydro-1H-cyclopropa[3,4]cyclopenta[1,2-c]pyrazol-1-yl)acetamide], the inhibition at 0.2 µM with HIV-IIIb (setting [2]) was 37%. Besides, the midpoint of cytotoxicity in data set [1], the CC50 at 5 days, lay at 19.3 µM.

With `Cn1nc(NS(C)(=O)=O)c2c(Cl)ccc(-c3ccc(C#CC4CCCN4C(=O)CO)nc3[C@H](Cc3cc(F)cc(F)c3)NC(=O)Cn3nc(C(F)(F)F)c4c3C(F)(F)[C@@H]3C[C@H]43)c21` (stereo partly drawn) [Compound 66, N-((1S)-1-(3-(4-chloro-1-methyl-3-(methylsulfonamido)-1H-indazol-7-yl)-6-((1-(2-hydroxyacetyl)pyrrolidin-2-yl)ethynyl)pyridin-2-yl)-2-(3,5-difluorophenyl)ethyl)-2-((3bS,4aR)-5,5-difluoro-3-(trifluoromethyl)-3b,4,4a,5-tetrahydro-1H-cyclopropa[3,4]cyclopenta[1,2-c]pyrazol-1-yl)acetamide], the inhibition at 0.2 µM in the data set with HIV-IIIb (setting [2]) was 92%. The same molecule had a CC50 at 5 days in data set [1] of 11.6 µM.

Turning to `Cn1cnc(C#Cc2ccc(-c3ccc(Cl)c4c(NS(C)(=O)=O)nn(C)c34)c([C@H](Cc3cc(F)cc(F)c3)NC(=O)Cn3nc(C(F)(F)F)c4c3C(F)(F)[C@@H]3C[C@H]43)n2)c1` [Compound 67, N—((S)-1-(3-(4-chloro-1-methyl-3-(methylsulfonamido)-1H-indazol-7-yl)-6-((1-methyl-1H-imidazol-4-yl)ethynyl)pyridin-2-yl)-2-(3,5-difluorophenyl)ethyl)-2-((3bS,4aR)-5,5-difluoro-3-(trifluoromethyl)-3b,4,4a,5-tetrahydro-1H-cyclopropa[3,4]cyclopenta[1,2-c]pyrazol-1-yl)acetamide], in the data set with HIV-IIIb (setting [2]), the inhibition at 0.2 µM stood at 87%. The same molecule yielded a half-maximal cytotoxic concentration (CC50) at 5 days in data set [1] above 53.2 µM.

Regarding `Cn1nc(NS(C)(=O)=O)c2c(Cl)ccc(-c3ccc(C#CC4CNCCO4)nc3[C@H](Cc3cc(F)cc(F)c3)NC(=O)Cn3nc(C(F)F)c4c3C(F)(F)[C@@H]3C[C@H]43)c21` (stereo partly drawn) [Compound 68, N-((1S)-1-(3-(4-chloro-1-methyl-3-(methylsulfonamido)-1H-indazol-7-yl)-6-(morpholin-2-ylethynyl)pyridin-2-yl)-2-(3,5-difluorophenyl)ethyl)-2-((3bS,4aR)-3-(difluoromethyl)-5,5-difluoro-3b,4,4a,5-tetrahydro-1H-cyclopropa[3,4]cyclopenta[1,2-c]pyrazol-1-yl)acetamide], the inhibition at 0.2 µM with HIV-IIIb (setting [2]) came to 100%. For the same molecule, the CC50 at 5 days in data set [1] came to 7.51 µM.

Regarding `Cn1nc(NS(C)(=O)=O)c2c(Cl)ccc(-c3ccc(C#CC4(O)CCC4)nc3[C@H](Cc3cc(F)cc(F)c3)NC(=O)Cn3nc(C(F)F)c4c3C(F)(F)[C@@H]3C[C@H]43)c21` [Compound 69, N—((S)-1-(3-(4-chloro-1-methyl-3-(methylsulfonamido)-1H-indazol-7-yl)-6-((1-hydroxycyclobutyl)ethynyl)pyridin-2-yl)-2-(3,5-difluorophenyl)ethyl)-2-((3bS,4aR)-3-(difluoromethyl)-5,5-difluoro-3b,4,4a,5-tetrahydro-1H-cyclopropa[3,4]cyclopenta[1,2-c]pyrazol-1-yl)acetamide], the inhibition at 0.2 µM with HIV-IIIb (setting [2]) was 96%. In data set [1], this molecule displayed a CC50 at 5 days of 13.6 µM.

As to `Cn1nc(NS(C)(=O)=O)c2c(Cl)ccc(-c3ccc(C#CC(C)(O)Cn4cncn4)nc3[C@H](Cc3cc(F)cc(F)c3)NC(=O)Cn3nc(C(F)(F)F)c4c3C(F)(F)[C@@H]3C[C@H]43)c21` (stereo partly drawn) [Compound 70B, N-((1S)-1-(3-(4-chloro-1-methyl-3-(methylsulfonamido)-1H-indazol-7-yl)-6-(3-hydroxy-3-methyl-4-(1H-1,2,4-triazol-1-yl)but-1-yn-1-yl)pyridin-2-yl)-2-(3,5-difluorophenyl)ethyl)-2-((3bS,4aR)-5,5-difluoro-3-(trifluoromethyl)-3b,4,4a,5-tetrahydro-1H-cyclopropa[3,4]cyclopenta[1,2-c]pyrazol-1-yl)acetamide], the inhibition at 0.2 µM with HIV-IIIb (setting [2]) came out at 96%. The same molecule returned a CC50 at 5 days in data set [1] of 14.2 µM.

Regarding `Cn1nc(NS(C)(=O)=O)c2c(Cl)ccc(-c3ccc(-c4cnn(C5CCOCC5)c4)nc3[C@H](Cc3cc(F)cc(F)c3)NC(=O)Cn3nc(C(F)(F)F)c4c3C(F)(F)[C@@H]3C[C@H]43)c21` [Compound 71, N—((S)-1-(3-(4-chloro-1-methyl-3-(methylsulfonamido)-1H-indazol-7-yl)-6-(1-(tetrahydro-2H-pyran-4-yl)-1H-pyrazol-4-yl)pyridin-2-yl)-2-(3,5-difluorophenyl)ethyl)-2-((3bS,4aR)-5,5-difluoro-3-(trifluoromethyl)-3b,4,4a,5-tetrahydro-1H-cyclopropa[3,4]cyclopenta[1,2-c]pyrazol-1-yl)acetamide], the inhibition at 0.2 µM in the data set with HIV-IIIb (setting [2]) is 97%. In data set [1], this molecule displayed a cytotoxic concentration (CC50) at 5 days above 53.2 µM.

`Cn1nc(NS(C)(=O)=O)c2c(Cl)ccc(-c3ccc(-c4cnn(C5COC5)c4)nc3[C@H](Cc3cc(F)cc(F)c3)NC(=O)Cn3nc(C(F)(F)F)c4c3C(F)(F)[C@@H]3C[C@H]43)c21` [Compound 72, N—((S)-1-(3-(4-chloro-1-methyl-3-(methylsulfonamido)-1H-indazol-7-yl)-6-(1-(oxetan-3-yl)-1H-pyrazol-4-yl)pyridin-2-yl)-2-(3,5-difluorophenyl)ethyl)-2-((3bS,4aR)-5,5-difluoro-3-(trifluoromethyl)-3b,4,4a,5-tetrahydro-1H-cyclopropa[3,4]cyclopenta[1,2-c]pyrazol-1-yl)acetamide]: the inhibition at 0.2 µM in the data set on HIV-IIIb (setting [2]) turned out to be 93%. This molecule also returned a 50% cytotoxic concentration (CC50) at 5 days in data set [1] of 50.3 µM.

Turning to `Cn1nc(NS(C)(=O)=O)c2c(Cl)ccc(-c3ccc(C#CC4CCCNC4)nc3[C@H](Cc3cc(F)cc(F)c3)NC(=O)Cn3nc(C(F)(F)F)c4c3C(F)(F)[C@@H]3C[C@H]43)c21` (stereo partly drawn) [Compound 73, N-((1S)-1-(3-(4-chloro-1-methyl-3-(methylsulfonamido)-1H-indazol-7-yl)-6-(piperidin-3-ylethynyl)pyridin-2-yl)-2-(3,5-difluorophenyl)ethyl)-2-((3bS,4aR)-5,5-difluoro-3-(trifluoromethyl)-3b,4,4a,5-tetrahydro-1H-cyclopropa[3,4]cyclopenta[1,2-c]pyrazol-1-yl)acetamide], the inhibition at 0.2 µM in the data set with HIV-IIIb (Human immunodeficiency virus 1, IIIB, MT4, 120 h) is 100%. The same molecule showed a CC50 at 5 days in data set [1] of 6 µM.

For the molecule `Cn1nc(NS(C)(=O)=O)c2c(Cl)ccc(-c3ccc(C#CC4(O)COC(C)(C)OC4)nc3[C@H](Cc3cc(F)cc(F)c3)NC(=O)Cn3nc(C(F)(F)F)c4c3C(F)(F)[C@@H]3C[C@H]43)c21` [Compound 74, N—((S)-1-(3-(4-chloro-1-methyl-3-(methylsulfonamido)-1H-indazol-7-yl)-6-((5-hydroxy-2,2-dimethyl-1,3-dioxan-5-yl)ethynyl)pyridin-2-yl)-2-(3,5-difluorophenyl)ethyl)-2-((3bS,4aR)-5,5-difluoro-3-(trifluoromethyl)-3b,4,4a,5-tetrahydro-1H-cyclopropa[3,4]cyclopenta[1,2-c]pyrazol-1-yl)acetamide], the inhibition at 0.2 µM in the data set with HIV-IIIb (setting [2]) came to 77%. In addition, in data set [1], the midpoint of cytotoxicity, the CC50 at 5 days, lay at 8.62 µM.

In the case of `Cn1nc(NS(C)(=O)=O)c2c(Cl)ccc(-c3ccc(C#CC4(O)CCCNC4)nc3[C@H](Cc3cc(F)cc(F)c3)NC(=O)Cn3nc(C(F)(F)F)c4c3C(F)(F)[C@@H]3C[C@H]43)c21` (stereo partly drawn) [Compound 75, N-((1S)-1-(3-(4-chloro-1-methyl-3-(methylsulfonamido)-1H-indazol-7-yl)-6-((3-hydroxypiperidin-3-yl)ethynyl)pyridin-2-yl)-2-(3,5-difluorophenyl)ethyl)-2-((3bS,4aR)-5,5-difluoro-3-(trifluoromethyl)-3b,4,4a,5-tetrahydro-1H-cyclopropa[3,4]cyclopenta[1,2-c]pyrazol-1-yl)acetamide], the inhibition at 0.2 µM in the data set with HIV-IIIb (setting [2]) was 81%. Besides, in data set [1], the CC50 at 5 days was found to be 5.59 µM.
